Active and inactive are the calls of the source. No rule for the calls is given here.
Tested on: CCRIS mutagenicity, Ames/micronucleus/aberration tests
Assay: CCRIS mutagenicity studies
[1] = Test System: AMES SALMONELLA TYPHIMURIUM, Strain/Indicator: TA97, Metabolic Activation: NONE, Method: PREINCUBATION
[2] = Test System: AMES SALMONELLA TYPHIMURIUM, Strain/Indicator: TA97, Metabolic Activation: RAT, LIVER, S-9, AROCLOR 1254, Method: PREINCUBATION
[3] = Test System: AMES SALMONELLA TYPHIMURIUM, Strain/Indicator: TA98, Metabolic Activation: NONE, Method: PREINCUBATION
[4] = Test System: AMES SALMONELLA TYPHIMURIUM, Strain/Indicator: TA98, Metabolic Activation: RAT, LIVER, S-9, PCB, Method: PREINCUBATION
[5] = Test System: AMES SALMONELLA TYPHIMURIUM, Strain/Indicator: TA100, Metabolic Activation: NONE, Method: PREINCUBATION
[6] = Test System: AMES SALMONELLA TYPHIMURIUM, Strain/Indicator: TA100, Metabolic Activation: RAT, LIVER, S-9, AROCLOR 1254, Method: PREINCUBATION
[7] = Test System: AMES SALMONELLA TYPHIMURIUM, Strain/Indicator: TA100, Metabolic Activation: RAT, LIVER, S-9, PCB, Method: PREINCUBATION
[8] = Test System: AMES SALMONELLA TYPHIMURIUM, Strain/Indicator: TA102, Metabolic Activation: NONE, Method: PREINCUBATION

C=C(OC)[C@H](CSCC(Br)c1ccccc1)NC(=O)CC (some centres undefined)
mutagenic call (Test System: AMES SALMONELLA TYPHIMURIUM, Strain/Indicator: TA100, Metabolic Activation: NONE, Method: SPOT TEST): inactive; negative

CCOCc1c(O)cc2c(c1O)C(=O)c1ccccc1C2=O
mutagenic call [1]: inactive; negative
mutagenic call [2]: active; positive
mutagenic call [3]: active; positive
mutagenic call (Test System: AMES SALMONELLA TYPHIMURIUM, Strain/Indicator: TA98, Metabolic Activation: RAT, LIVER, S-9, AROCLOR 1254, Method: PREINCUBATION): active; positive
mutagenic call [4]: active; positive
mutagenic call [5]: active; positive
mutagenic call [6]: active; positive
mutagenic call [7]: active; positive
mutagenic call [8]: active; positive
mutagenic call (Test System: AMES SALMONELLA TYPHIMURIUM, Strain/Indicator: TA102, Metabolic Activation: RAT, LIVER, S-9, Method: PREINCUBATION): active; positive
mutagenic call (Test System: AMES SALMONELLA TYPHIMURIUM, Strain/Indicator: TA1537, Metabolic Activation: NONE, Method: PREINCUBATION): active; positive
mutagenic call (Test System: AMES SALMONELLA TYPHIMURIUM, Strain/Indicator: TA1537, Metabolic Activation: RAT, LIVER, S-9, AROCLOR 1254, Method: PREINCUBATION): active; positive
mutagenic call (Test System: AMES SALMONELLA TYPHIMURIUM, Strain/Indicator: TA1537, Metabolic Activation: RAT, LIVER, S-9, Method: PREINCUBATION): active; positive
mutagenic call (Test System: CHINESE HAMSTER V-79, Strain/Indicator: V-79/8-AZAGUANINE, Metabolic Activation: NONE, Method: STANDARD PLATE): inactive; negative
mutagenic call (Test System: CHINESE HAMSTER V-79, Strain/Indicator: V-79/8-AZAGUANINE, Metabolic Activation: PRIMARY RAT HEPATOCYTES, Method: STANDARD PLATE): active; positive

O=C1OCC(Br)=C1Br
mutagenic call (Test System: AMES SALMONELLA TYPHIMURIUM, Strain/Indicator: TA100, Metabolic Activation: NONE, Method: STANDARD PLATE): active; positive

CCCCN(N=O)C(N)=O
mutagenic call [5]: active; positive
mutagenic call (Test System: AMES SALMONELLA TYPHIMURIUM, Strain/Indicator: TA100, Metabolic Activation: RAT, LIVER, S-9, KC500 OR PHENOBARBITAL, Method: LIQUID SUSPENSION): active; positive
mutagenic call (Test System: AMES SALMONELLA TYPHIMURIUM, Strain/Indicator: TA1535, Metabolic Activation: NONE, Method: PREINCUBATION): active; positive
mutagenic call (Test System: AMES SALMONELLA TYPHIMURIUM, Strain/Indicator: TA1535, Metabolic Activation: NONE, Method: STANDARD PLATE): active; positive
mutagenic call (Test System: CHINESE HAMSTER V-79, Strain/Indicator: V-79/6-THIOGUANINE, Metabolic Activation: NONE, Method: FLASK ASSAY): active; positive
mutagenic call (Test System: CHO/HGPRT, Strain/Indicator: CHO-K1-BH4, Metabolic Activation: NONE, Method: STANDARD PLATE): active; positive
mutagenic call (Test System: E. COLI B, Strain/Indicator: H/R30R, Metabolic Activation: NONE): active; positive
mutagenic call (Test System: E. COLI B, Strain/Indicator: HS30R, Metabolic Activation: NONE): active; positive
mutagenic call (Test System: E. COLI, Strain/Indicator: WP2, Metabolic Activation: NONE, Method: STANDARD PLATE): active; positive
mutagenic call (Test System: E. COLI, Strain/Indicator: WP2 UVRA, Metabolic Activation: NONE, Method: PREINCUBATION): active; positive
mutagenic call (Test System: E. COLI, Strain/Indicator: WP2 UVRA, Metabolic Activation: NONE, Method: STANDARD PLATE): active; positive
mutagenic call (Test System: E. COLI, Strain/Indicator: WP2 UVRA, Metabolic Activation: RAT, LIVER, S-9, PHENOBARBITAL AND 5,6-BENZOFLAVONE, Method: PREINCUBATION): active; positive

Cc1c(O)cc2c(c1O)C(=O)c1cccc(O)c1C2=O
mutagenic call [3]: inactive; negative
mutagenic call [4]: active; positive
mutagenic call [5]: inactive; negative
mutagenic call [7]: active; positive

O=C(O)COc1ccccc1
mutagenic call [1]: inactive; negative
mutagenic call [2]: inactive; negative
mutagenic call [5]: inactive; negative
mutagenic call [6]: inactive; negative
mutagenic call [8]: inactive; negative
mutagenic call (Test System: AMES SALMONELLA TYPHIMURIUM, Strain/Indicator: TA102, Metabolic Activation: RAT, LIVER, S-9, AROCLOR 1254, Method: PREINCUBATION): inactive; negative

From PubChem BioAssay AID1259407 (Chemical Carcinogenesis Research Information System (CCRIS), 2018)
